According to US20260055108A1, “TRIAZINE COMPOUNDS AND USES THEREOF” (HUTCHMED LIMITED, priority 2022, published 2026):
pIC50: −log10 of the molar value.

Key:
[1] = molecular target: Recombinant human Menin protein (2-610) / MLL polypeptide binding (Homo sapiens (Human), UniProt O00255); assay: Menin and MLL protein binding at a molecular level (fluorescence polarization method); settings: inhibition of Menin / MLL polypeptide binding
How it was run: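 Binding of recombinant human Menin (2-610) to 6-FAM-labelled MLL peptide measured by fluorescence polarization (ex 480/em 535 nm) in Tris/NaCl/TCEP buffer, pH 7.5, 2% DMSO. Compound preincubated with Menin 30 min at room temperature, then peptide added for 30 min in the dark. Tested at 1.000 down to 0.0005 μM final.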

[2] = tested on: MV-4-11 cells (human acute myelogenous leukemia cell line carrying MLL-AF4 mutation); assay: Cell proliferation assay, MV-4-11 (CellTiter-Glo); format: cell-based; settings: Homo sapiens, MV4-11, 72 h, MV-4-11 cells, 3 days treatment, CellTiter-Glo; read-out: GI50
How it was run: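 MV-4-11 cells (3000/well, IMDM with 10% HIFBS and 50 μM β-mercaptoethanol) exposed to compound at 1.100–0.001 μM final, 0.1% DMSO, for 3 days at 37°C. Viability read by CellTiter-Glo luminescence on day 0 and day 3, normalised to day-0 and untreated wells.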

Chain of Recombinant human Menin protein (2-610) / MLL polypeptide binding (O00255 2-610): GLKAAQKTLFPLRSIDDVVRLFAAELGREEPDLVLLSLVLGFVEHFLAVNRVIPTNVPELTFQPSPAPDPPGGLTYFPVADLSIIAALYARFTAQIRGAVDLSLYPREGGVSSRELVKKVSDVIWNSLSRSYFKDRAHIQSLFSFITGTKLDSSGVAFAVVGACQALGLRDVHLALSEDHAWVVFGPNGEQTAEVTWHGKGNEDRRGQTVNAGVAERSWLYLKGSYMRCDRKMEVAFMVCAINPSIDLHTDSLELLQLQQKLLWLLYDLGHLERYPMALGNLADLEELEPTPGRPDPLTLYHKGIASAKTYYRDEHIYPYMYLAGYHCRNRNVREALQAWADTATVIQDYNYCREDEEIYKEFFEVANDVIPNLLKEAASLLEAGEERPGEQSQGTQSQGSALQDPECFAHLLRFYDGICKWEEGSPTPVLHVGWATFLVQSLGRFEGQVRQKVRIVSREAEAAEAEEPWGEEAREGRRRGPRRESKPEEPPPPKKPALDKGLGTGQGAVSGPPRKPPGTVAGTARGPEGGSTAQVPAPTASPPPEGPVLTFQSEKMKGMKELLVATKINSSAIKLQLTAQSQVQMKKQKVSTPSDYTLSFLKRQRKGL

Structure (SMILES) | pIC50 [1] | GI50 [2] [nM]
CCN(C(=O)c1cc(F)ccc1Oc1nncnc1N1CC2(CCN(CC3CCN(C(=O)Nc4ccccc4F)CC3)CC2)C1)C(C)C [Compound 36, 4-((2-(6-(2-(ethyl(isopropyl)carbamoyl)-4-fluorophenoxy)-1,2,4-triazin-5-yl)-2,7-diazaspiro[3.5]nonan-7-yl)methyl)-N-(2-fluorophenyl)piperidine-1-carboxamide] | 8.34 | 16
C[C@H]1CN(C)CCN1C(=O)c1cc(F)ccc1Oc1nncnc1N1CC2(CCN(CC3CCN(c4ccccn4)CC3)CC2)C1 [Compound 76] | 6.06 | 932
CCN(C(=O)c1cc(F)ccc1Oc1nncnc1N1CC2(CCN(Cc3ccc(Cl)nc3)CC2)C1)C(C)C [Compound 59] | < 6.00 | > 3300
CCN(C(=O)c1cc(F)ccc1Oc1nncnc1N1CC(C2(N(C)Cc3cc(C#N)n(C)n3)CC2)C1)C(C)C [Compound 146, 2-((5-(3-(1-(((5-cyano-1-methyl-1H-pyrazol-3-yl)methyl)(methyl)amino)cyclopropyl)azetidin-1-yl)-1,2,4-triazin-6-yl)oxy)-N-ethyl-5-fluoro-N-isopropylbenzamide] | < 6.00 | 986
CCN(C(=O)c1cc(F)ccc1Oc1nncnc1N1CC2(CCN(CC3CCN(c4ccn5ncnc5c4)CC3)CC2)C1)C(C)C [Compound 55, 2-((5-(7-((1-([1,2,4]triazolo[1,5-a]pyridin-7-yl)piperidin-4-yl)methyl)-2,7-diazaspiro[3.5]nonan-2-yl)-1,2,4-triazin-6-yl)oxy)-N-ethyl-5-fluoro-N-isopropylbenizamide] | 8.46 | 4
CCN(C(=O)c1cc(F)ccc1Oc1nncnc1N1CC2(CCN(CC3CCN(C(=O)N(C)c4ccccn4)CC3)CC2)C1)C(C)C [Compound 25] | 6.79 | 231
CCN(C(=O)c1cc(F)ccc1Oc1nncnc1N1CC2(CCN(CC3CCN(c4cc(C)cnn4)CC3)CC2)C1)C(C)C [Compound 85] | 8.38 | 6
CCN(C(=O)c1cc(F)ccc1Oc1nncnc1N1CC2(CCN(CC3CCN(C(=O)C4COC4)CC3)CC2)C1)C(C)C [Compound 5] | 7.67 | 58
CCN(C(=O)c1cc(F)ccc1Oc1nncnc1N1CC(C2(N(C)Cc3ccc4c(cc(C#N)n4CCO)c3C)CC2)C1)C(C)C [Compound 153] | 8.28 | 18
